One assay has as its system MRSA. Put plainly: Mouse model of MRSA sepsis (survival, lethality, bacterial counts in organs). In kind it is in vivo, Staphylococcus aureus. The note with it: for Survival rate at eight days after MRSA infection: i.p. treatment 10 min later: TP4 0.005 mg/g, vancomycin 0.01 mg/g, methicillin 0.01 mg/g; for Survival rate at eight days after MRSA infection / % lethality: n = 10; for Mean ± SD Count (CFU/mL) Blood / Mean ± SD Count (CFU/mL) Liver / Mean ± SD Count (CFU/mL) Mesenteric Lymph Nodes / Mean ± SD Count (CFU/mL) Peritoneum / Mean ± SD Count (CFU/mL) Spleen / % lethality: MRSA-infected mice, TP4 0.005 mg/g, methicillin or vancomycin 0.01 mg/g; for Mean ± SD Count (CFU/mL) Blood / Mean ± SD Count (CFU/mL) Liver / Mean ± SD Count (CFU/mL) Mesenteric Lymph Nodes / Mean ± SD Count (CFU/mL) Peritoneum / Mean ± SD Count (CFU/mL) Spleen: 48 h after i.p. treatment; for % lethality: monitored for 2 day following i.p. injection. On the procedure: (§1) An MRSA strain commonly associated with human wound infections was selected to generate a polymicrobial solution [32]. The MRSA strain is a clinical isolate from stool obtained from Taipei City Hospital (Heping Fuyou branch). The strain was identified by routine laboratory methods and stored in 20% (vol/vol) glycerol at −80 °C. Tryptic Soy Broth (TSB) was used as the culture medium. HaCaT human keratinocyte cell line and Hs-68 human foreskin fibroblast cell line were grown in DMEM containing 10% (v/v) FBS, 0.37% (w/v) NaHCO3, penicillin (100 unit/mL), streptomycin (100 μg/mL), 0.1 mM NEAA, and 1 mM sodium pyruvate at 37 °C in a humidified incubator under 5% CO2 and 95% air. The cells were harvested at ca. 90% confluence (ca. 10^6 cells/10-cm dish). Balb/c female mice were used for the experiments. All mice were housed in cages under specific pathogen-free conditions, and given water and standard laboratory chow ad libitum during the experiments. All animal handing procedures were in accordance with National Taiwan Ocean University (NTOU) guidelines. All procedures were approved by the Animal Care and Use Committee of NTOU.
Female Balb/c mice (6–8 weeks old) were injected intraperitoneally with 10^6 CFU MRSA per mouse. Ten minutes after MRSA injection, mice were injected intraperitoneally with vancomycin (0.01 mg/g mouse body weight), methicillin (0.01 mg/g mouse body weight), or TP4 (0.005 mg/g mouse body weight). In a second set of experiments, mice were given intraperitoneal injections of TP4 (0.005 mg/g mouse body weight) at 10, 60, 120, or 180 min after MRSA injection. Survival rate and status were recorded every 24 h for up to 192 h. To examine bacterial dissemination, mice were sacrificed at 48 h after injection with antibiotics or TP4, and the bacterial numbers in blood, peritoneum, spleen, liver, and mesenteric lymph nodes were recorded. Colony counts from the diluted bacterial solutions were expressed relative to those at the start of treatment. These experiments consisted of four groups, and each group contained 10 mice.

Assay [1] relates to HaCaT human keratinocyte cell line. The format is cell-based. The note with it: HaCaT cells. The protocol:
as §1
(§2) Cells were cultured at a density of 5 × 10^4 cells per well in flat-bottomed 96-well plates, and supplemented with various combinations of TP4. After 24 h, cell viability were measured with neutral red (Cat. No. N4638; Sigma, St. Louis, MO, USA) uptake assay, Cytotoxicity Detection Kit (LDH) (Cat. No. 11644793001; Roche Applied Science, Indianapolis, IN, USA), and CellTiter 96 Aqueous One Solution (Cat. No. G1111; Promega, Madison, WI, USA), following the vendors’ instructions.

Assay [2] relates to Hs-68 human foreskin fibroblast cell line. In kind it is cell-based. The protocol: as §1, §2
Assay [3] concerns collagen I, collagen III and KGF gene expression in Hs-68 cells. Put plainly: Real-time qPCR of collagen I, collagen III and KGF gene expression in Hs-68 cells. The format is cell-based, human. The note with it: TP4 6.25 μg/mL, 48 h, GAPDH reference. The protocol:
(§3) Total RNA was isolated from HaCaT and Hs-68 cells, and purified using a Qiagen RNeasy kit. Reverse transcription into cDNA was performed with an iScript cDNA Synthesis Kit (Cat. No. 1708991; BIO-RAD, Hercules, CA, USA) according to the manufacturer’s recommendations. Real-time polymerase chain reaction (PCR) was performed to analyze gene expression, using […] of cDNA, 2× iQSYBR® Green Supermix (Cat. No. 1708882; BIO-RAD, Hercules, CA, USA), and 500 nM of forward and reverse primers against selected genes or GAPDH (reference gene), according to the instructions of the manufacturer. Quantitative PCR was performed under the following conditions: 40 cycles of 1 min at 95 °C, 30 s at 55 °C, and 1 min at 72 °C. The threshold cycle number (Ct) was calculated with BIO-RAD software. Relative transcript quantities were calculated using the ΔCt method with GAPDH as the internal reference gene. ΔCt is the difference in the threshold cycles of messenger (m) RNA for selected genes relative to those of GAPDH mRNA. Real-time PCR was performed in triplicate for each experimental group.
In general terms: Quantitative PCR measures a nucleic acid by following its amplification.

Assay [4] deals with EGF, TGF-β and VEGF gene expression in wound tissue. Put plainly: Real-time RT-PCR of EGF, TGF-β and VEGF gene expression in wound tissue of MRSA-infected mice. The format is in vivo. On the procedure:
as §3
Tracings were taken immediately after injury. For uncontaminated wounds, wound size was determined every second day. […] Wound areas were determined using the Macintosh Adobe Photoshop program, Histogram Analysis. The percentage of wound contraction was calculated as follows: % Wound contraction = (A0 − At)/A0× 100, where A0 is the original wound area, and At is the area of wound at the time of biopsy, accordingly. Cell proliferation gene expression was performed by real-time PCR, using the methods described in Section 4.4 above.

Assay [5] relates to TNF, IL-6 and IL-1 in serum. Put plainly: Serum cytokines (TNF, IL-6, IL-1) by ELISA in mice with MRSA-infected wounds. The format is in vivo. The note with it: MRSA-infected wound. On the procedure:
(§4) Female Balb/c mice (6–8 weeks old) were used for wound healing experiments. All mice were housed individually to prevent fighting and further damage to the wounds, and they were provided with food and water ad libitum. Mice were maintained on a 12 h light: dark cycle at room temperature, and acclimatized to the environment for at least a week before use in experiments. All researchers wore caps, sterile gloves, gowns, and shoe covers when handling mice. Hair was removed from the back of the mice by shaving, and a full thickness wound (1 cm in diameter) was then created in the exposed region. Each wound was inoculated with 50 µL of broth mix containing 10^6 CFU (colony forming units) of MRSA. At 5 min after inoculation, 50 µL TP4 (2 mg/mL) in a total volume of 0.1 mL were applied to the wound. Thirty minutes after treatment, wounds were covered with Tegaderm (3 M, St. Paul, MN, USA) to maintain uniformity, and to prevent the mice from removing the treatments. Based on initial experiments, we examined the wounds at 3, 7, 14, and 21 days post-injury, so as not to disturb the infection. Such examinations captured the transitions from inflammatory to regenerative, and regenerative to resolving phases of wound healing. Animals were subsequently euthanized by CO2 inhalation and the wounds assessed. Four individuals in each group were examined at each time point for each experiment. Each wound was measured and then removed from the animal, with unwounded skin taken from the contralateral dorsum as a control. Each biopsy was divided into six sections, with three sections being used for tensiometry and histology, and three sections for quantitative determination of microbial load. Wound healing studies were repeated in triplicate.
Skin tissues were removed and fixed as previously described. In brief, the cryosections were fixed with 4% formaldehyde, and the tissue samples were stained with VEGF. IHC was analyzed by three independent investigators. Images were taken using a BX-51 microscope (Olympus, Japan). ELISA was performed as previously described.
Background: ELISA stands for enzyme-linked immunosorbent assay.

The subject of a further assay is MRSA-infected wounds. Put plainly: Mouse model of wound healing, full-thickness wounds contaminated with MRSA (wound closure). In kind it is in vivo, Balb/c mice. On the procedure:
as §4, with “Thirty minutes after treatment, wounds were covered with Tegaderm (3 M, St. Paul, MN, USA) to maintain uniformity, and to prevent the mice from removing the treatments. Based on initial experiments, we examined the wounds at 3, 7, 14, and 21 days post-injury, so as not to disturb the infection. Such examinations captured the transitions from inflammatory to regenerative, and regenerative to resolving phases of wound healing.” left out, “Four individuals in each group were examined at each time point for each experiment.” left out, “Wound healing studies were repeated in triplicate.” left out
Tracings were taken immediately after injury. For uncontaminated wounds, wound size was determined every second day. […] Wound areas were determined using the Macintosh Adobe Photoshop program, Histogram Analysis. […]

Assay [6] relates to keratin 10 and keratin 17 gene expression in HaCaT cells. Put plainly: Real-time qPCR of keratin 10 and keratin 17 gene expression in HaCaT cells. The note with it: TP4 6.25 µg/mL, 48 h, GAPDH reference. In kind it is cell-based, human. The protocol:
as §3

[7] abbreviates: Balb/c mice, MRSA 1 × 10^6 CFU/mouse i.p.
Where [8] appears, read: Balb/c mice, MRSA 1 × 10^6 CFU/mouse i.p., TP4 0.005 mg/g i.p.

Results on three molecules are retold here after article PMC4446607, “Tilapia Piscidin 4 (TP4) Stimulates Cell Proliferation and Wound Closure in MRSA-Infected Wounds in Mice” (Marine Drugs, 2015).

With `COc1cccc(OC)c1C(=O)N[C@@H]1C(=O)N2[C@@H]1SC(C)(C)[C@@H]2C(=O)O` [methicillin], the “Survival rate at eight days after MRSA infection” value (shortened to “Survival rate at eight days”) with MRSA (setting [7]) came out at 0%. Also, in the assay on MRSA, the “Mean ± SD Count (CFU/mL) Blood” value was 4.1 × 10^7 ± 1.3 × 10^7 B CFU/mL, the “Mean ± SD Count (CFU/mL) Liver” value is reported as 2.7 × 10^8 ± 3.3 × 10^6 B CFU/mL, the “Mean ± SD Count (CFU/mL) Mesenteric Lymph Nodes” value is recorded as 4.1 × 10^7 ± 3 × 10^7 C CFU/mL and the “Mean ± SD Count (CFU/mL) Peritoneum” value is 2.3 × 10^9 ± 2 × 10^8 B CFU/mL. Besides, in the assay with MRSA, the “Mean ± SD Count (CFU/mL) Spleen” value is 1.5 × 10^8 ± 2.1 × 10^7 B CFU/mL and the “% lethality” value was 20 ^B %.

For `CN[C@H](CC(C)C)C(=O)N[C@H]1C(=O)N[C@@H](CC(N)=O)C(=O)N[C@H]2C(=O)N[C@H]3C(=O)N[C@H](C(=O)N[C@H](C(=O)O)c4cc(O)cc(O)c4-c4cc3ccc4O)[C@H](O)c3ccc(c(Cl)c3)Oc3cc2cc(c3O[C@@H]2O[C@H](CO)[C@@H](O)[C@H](O)[C@H]2O[C@H]2C[C@](C)(N)[C@H](O)[C@H](C)O2)Oc2ccc(cc2Cl)[C@H]1O` [vancomycin], the “Survival rate at eight days” value in the assay on MRSA (setting [7]) is listed as 80%. In the assay with MRSA, the “Mean ± SD Count (CFU/mL) Blood” value is given as 8 × 10^4 ± 1.1 × 10^4 B CFU/mL, the “Mean ± SD Count (CFU/mL) Liver” value is on record as 1.3 × 10^7 ± 1.8 × 10^5 B CFU/mL, the “Mean ± SD Count (CFU/mL) Mesenteric Lymph Nodes” value is reported as 1 × 10^7 ± 4 × 10^6 B CFU/mL and the “Mean ± SD Count (CFU/mL) Peritoneum” value is 1.5 × 10^6 ± 1 × 10^5 A CFU/mL. Moreover, in the assay on MRSA, the “Mean ± SD Count (CFU/mL) Spleen” value was 1.4 × 10^7 ± 1.1 × 10^6 B CFU/mL and the “% lethality” value is reported as 10%.

On to “H-FIHHIIGGLFSAGKAIHRLIRRRRR-OH [TP4, Tilapia piscidin 4]”, for which the “TP4 concentration at which stimulation of proliferation / gene expression was detectable” value in assay [1] was 6.25 µg/mL. For the same molecule, the “TP4 concentration at which stimulation of proliferation / gene expression was detectable” value in assay [2] (Hs-68 cells) is on record as 6.25 µg/mL. Further, in assay [2] (change in cell viability compared to the untreated group, neutral red, LDH, MTT), the “Doses at which Hs-68 cell proliferation was significantly increased” value is 2.5~10 μg/mL. In assay [3], the “Collagen I gene expression versus untreated controls” value was “enhanced”, the “Collagen III gene expression versus untreated controls” value is reported as “enhanced” and the “KGF gene expression versus untreated controls” value was “enhanced”. In the assay on MRSA (setting [8]), the “Survival rate, TP4 injected 10 min after MRSA” value came out at 100%; the “Survival rate, TP4 injected 60 min after MRSA” value was determined as 80%; the “Survival rate, TP4 injected 120 min after MRSA” value is given as 60%; the “Survival rate, TP4 injected 180 min after MRSA” value was 50%. Also, in the assay with MRSA (setting [7]), the “Survival rate at eight days” value came out at 100%. For the same molecule, in the assay on MRSA, the “Mean ± SD Count (CFU/mL) Blood” value is 0 ^A CFU/mL, the “Mean ± SD Count (CFU/mL) Liver” value is 2.4 × 10^6 ± 1 × 10^6 A CFU/mL, the “Mean ± SD Count (CFU/mL) Mesenteric Lymph Nodes” value was 6 × 10^5 ± 1 × 10^5 A CFU/mL and the “Mean ± SD Count (CFU/mL) Peritoneum” value was 1 × 10^6 ± 1 × 10^6 A CFU/mL. Moreover, in the assay on MRSA, the “Mean ± SD Count (CFU/mL) Spleen” value is 3 × 10^6 ± 1.2 × 10^6 A CFU/mL and the “% lethality” value is 0 ^A %. Besides, the “EGF gene expression compared to control and vancomycin-treated mice” value in assay [4] (3 days post-infection) was “enhanced gene expression”. In assay [4] (14 days post-infection), the “VEGF gene expression compared to control and vancomycin-treated mice” value is “enhanced gene expression”. Also, the “TGF gene expression compared to control and vancomycin-treated mice” value in assay [4] (seven days post-infection) was “enhanced gene expression”. The “IL-1 compared with control wounds” value in assay [5] is “statistically significant enhancement”. Besides, in assay [5] (three days after treatment), the “Induction of IL-6 compared to MRSA-infected positive controls” value is reported as “decreased induction” and the “Induction of TNF compared to MRSA-infected positive controls” value is “decreased induction”. For the same molecule, the “Wound size by 14 days” value with MRSA-infected wounds (MRSA-contaminated wounds, P < 0.05) was “smaller than that of the vancomycin-treated group”. For the same molecule, the “Wound closure compared with the control” value in the assay on MRSA-infected wounds (contaminated wounds (increase not observed in uncontaminated wounds)) is given as “accelerated”. Besides, in assay [6], the “Keratin 10 gene expression versus untreated controls” value is recorded as “significantly increased” and the “Keratin 17 gene expression versus untreated controls” value is listed as “did not affect”.
